From patent publication US20080051364A1, “Therapeutic Treatment of Accelerated Bone Resorption” (priority 2004, published 2008)

Key:
[1] = tested on: Adjuvant Induced Arthritis (AIA), collagen induced arthritis (CIA) and thropomyosine induced arthritis; conditions: different experimental animal models; Baharav et al. 2004; cited from earlier work
[2] = tested on: key signaling protein expression down-stream to A3AR activation in paw extracts; assay: Western blot analysis of key signaling proteins in paw extracts from AIA rats; assay type: in vivo, rat
Experimental: The hind paws were dissected above the ankle joint. The bony tissue was broken into pieces broken, snap frozen in liquid nitrogen and stored at −80° C. until use. The paw tissues were added to (4 ml/g tissue) RIPA extraction buffer containing 150 mM NaCl, 50 mM Tris, 1% NP40, 0.5% Deoxycholate and 0.1% SDS. Tissues were homogenized on ice with a polytron, centrifuged and the supernatans were subjected to Western Blot analysis
Western blot analysis (WB) of paw extracts were carried out according to the following protocol. Samples were rinsed with ice-cold PBS and transferred to ice-cold lysis buffer (TNN buffer, 50 mM Tris buffer pH=7.5, 150 mM NaCl, NP 40). Cell debris was removed by centrifugation for 10 min, at 7500×g. Protein concentrations were determined using the Bio-Rad protein assay dye reagent. Equal amounts of the sample (50 μg) were separated by SDS-PAGE, using 12% polyacrylamide gels. The resolved proteins were then electroblotted onto nitrocellulose membranes (Schleicher & Schuell, Keene, N.H., USA). Membranes were blocked with 1% BSA and incubated with the desired primary antibody (dilution 1:1000) for 24 h at 4° C. Blots were then washed and incubated with a secondary antibody for 1 h at room temperature. Bands were recorded using BCIP/NBT color development kit (Promega, Madison, Wis., USA). Data presented in the different figures are representative of at least four different experiments.
The hind paws of animals from the control and IB-MECA treated groups were dissected and after protein extraction the samples were subjected for WB analysis. […] The activation of the A3AR led to a 40% decrease in the RANKL protein expression level in paw extracts derived from IB-MECA treated AIA rats. […] This Chain of events led a 50% reduction in the expression level of TNF-α upon IB-MECA treatment.

[3] = tested on: AIA rats; assay: Histological score of joints of AIA rats; assay type: in vivo, rat
Experimental: (§1) Female Lewis rats, aged 8-10 weeks, obtained from Harlan Laboratories (Jerusalem, Israel), were injected subcutaneously (SC) at the tail base with 100 μl of suspension composed of incomplete Freund's adjuvant with 10 mg/ml heat killed Mycobacterium tuberculosis. Each group contained 10 animals and each experiment was conducted at least three times.
(§2) Drugs were orally administered by gavage, twice daily. The […] received vehicle only (DMSO in a dilution corresponding to that of the drug) while the treatment groups received 10 μg/kg of IB-MECA. Treatment was initiated on day 14 after vaccination.
The foot, knee and hip region of both vehicle and CF101 treated animals were collected and fixed in 10% buffered formalin and decalcified in hydrochloric acid (Calci-Clear Rapid) (Pational Diagnostics, Gr, USA) for 24 h. The specimens were then processed for paraffine embedding, histologic 4-μm sections were cut and stained with hematoxylin and eosin. The sections were assessed by a pathologist blinded to the treatment protocols, and each joint was scored separately. The histology score was assessed as follows: A score of 0 to 4 for the extent of inflammatory cells' infiltration to was used according to the followed: 0—Normal; 1—minimal inflammatory infiltration; 2—mild infiltration; 3—moderate infiltration; 4—marked infiltration. The pannus formation joint tissues, synovial lining cell hyperplasia. The score was graded […]: 0—normal; 1—minimal loss of cortical bone at a few sites; 2—mild loss of cortical trabecular bone; 3—moderate loss of bone at many sites; 4—marked loss of bone at many sites; 5—marked loss of bone at many sites with fragmenting and full thickness penetration of inflammatory process or pannus into the cortical bone. The mean of all the histological parameter scores were designated “Histology Score”.
At day 23 after the disease induction, the animals were scarified, and joints from two hind paws of each animal were harvested and examined histologically. The histological analysis was carried out on the basis of infiltration of inflammatory cells, synovial hyperplasia, cartilage and bone destruction. Most of the histophathological changes were found in the interophalangeal region of the foot. […] Overall, the severity of joint histopathology was correlated with the clinical severity index.

[4] = Plasma half life in mice; assay type: in vivo
Experimental: (§3) Based on the above conversion methods, the preferred dosage range for two specific A3AR agonist, e.g. IB-MECA and Cl-IB-MECA, would be less than 4 mg, typically within the range of about 0.01 to about 2 mg (about 0.14-28 micrograms/Kg, respectively) and desirably within the range of about 0.1 to 1.5 mg (about 1.4-21 micrograms/Kg, respectively). This dose may be administered once, twice or, at times, several times a day.

[5] = tested on: AIA rats; assay: Clinical disease score and paw thickness in the Adjuvant Induced Arthritis (AIA) rat model; assay type: in vivo
Experimental: as §1, §2
The animals were inspected every second day for clinical arthritis. The scoring system ranged from 0-4 of each limb: 0—no arthritis; 1—redness or swelling of one toe/finger joint; 2—redness and swelling of more than one toe/finger joints, 3—the ankle and tarsal-metatarsal joints involvement. 4—entire paw redness or swelling. The inflammatory intensity was also determined in accordance with the increase in the rat hind paw's diameter, measured by caliper (Mitotoyo, Tokyo, Japan).

[6] = Plasma half life in human studies; assay type: in vivo; conditions: data not shown
Experimental: as §3

SMILES: CNC(=O)[C@H]1O[C@@H](n2cnc3c(NCc4cccc(I)c4)ncnc32)[C@H](O)[C@@H]1O [IB-MECA, N^6-(3-iodobenzyl)-adenosine-5′-N-methyluronamide]
- clinical and pathological manifestations of arthritis [1]: efficacious in preventing the clinical and pathological manifestations of arthritis
- A3AR expression ([2]; WB (FIG. 10A)): Modulation in the A3AR itself was noted
- decrease in the RANKL protein expression level ([2]; WB (FIG. 10B)): 40%
- level of IKK ([2]; WB (FIG. 10C)): down-regulation
- level of NF-κB ([2]; WB (FIG. 10C)): reduced level
- reduction in the expression level of TNF-α ([2]; WB (FIG. 10C)): 50%
- PI3K protein expression level ([2]; WB, vs control (FIG. 10C)): reduction in the protein expression level
- PKB/AKT protein expression level ([2]; WB, vs control (FIG. 10C)): reduction in the protein expression level
- bone loss ([3]; AIA rat model, summary statement): prevents bone loss
- fibrosis and hyperplasia of the synovia ([3]; day 23 (FIGS. 3A-3B)): almost no the fibrosis and mild hyperplasia of the synovia
- pannus tissue development ([3]; day 23 (FIGS. 4A-4B)): mild evidence for a development of pannus tissue
- cartilage texture / destruction ([3]; day 23 (FIGS. 5A-5B)): appeared to be normal
- presence of osteoblasts ([3]; day 23 (FIGS. 8A-8B)): low presence of osteoblasts
- new bone formation ([3]; day 23 (FIGS. 9A-9B)): slight new bone formation
- reduction in the appearance of osteoclasts ([3]; day 23, in comparison to the control group (FIGS. 6A-6B)): 73%
- inflammatory changes in the joints, mean total score ([3]; day 23, score 0-4, control 3.2±0.14 (FIGS. 2A-2B)): 0.4±0.034
- histopathological changes in the knee region ([3]; day 23 after disease induction, vs vehicle group): remained intact
- half life [4]: 1.5 h
- paw edema ([5]; AIA rats, 10 μg/kg orally twice daily from day 14): significantly decreased
- inhibition in the paw thickness ([5]; AIA rats, 10 μg/kg orally twice daily from day 14 (FIG. 1B)): 35%±1.2
- maximal clinical arthritic score ([5]; AIA rats, 10 μg/kg orally twice daily from day 14, score 0-4 of each limb, control 8.7±0.76 (FIG. 1A)): 4.8±0.95
- paw appearance (redness and swelling) ([5]; representative paw vs control group (FIG. 1C)): appears completely normal
- half life in plasma [6]: 8 to 10 h
